Consider 13 molecules from patent publication US20230073777A1, “CYCLIC-AMP RESPONSE ELEMENT BINDING PROTEIN (CBP) AND/OR ADENOVIRAL E1A BINDING PROTEIN OF 300 KDA (P300) DEGRADATION COMPOUNDS AND METHODS OF USE” (CULLGEN (SHANGHAI), INC., priority 2019, published 2023).

By IC50 is commonly meant the concentration at which inhibition is half-maximal. Higher therefore signals a need for much substance.

The target of experiment [1] is P300 (Homo sapiens, UniProt Q09472). Nature of the experiment: Immunoblotting of P300 protein levels in LNCaP or 22RV1 cells. It is filed as cell-based. Also on record: LNCaP or 22RV1 cells that express CBP/P300 proteins were treated with GNE-781 or the bivalent compounds; endogenous in cells; host or cells: LNCaP (clone FGC) or 22RV1 cells. As to conditions: read-out: Degradation (10 nM). The method in brief:
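P300/CBP levels quantified by chemiluminescent immunoblot band densitometry, normalized against tubulin or vinculin loading controls. Lysates came from LNCaP or 22RV1 cells exposed to compounds or DMSO vehicle for indicated times.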

Experiment [2] relates to LNCaP cells. Nature of the experiment: LNCaP cell viability assay (CellTiter-Glo). The experiment is classed as cell-based. As to conditions: Homo sapiens, 72 h, LNCaP prostate cancer cell viability inhibition, 3 days. The method in brief:
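Three-day treatment of LNCaP cells (5000 per well) across a 12-point, 3-fold dilution series starting at 10 μM. ATP luminescence (CellTiter-Glo) relative to untreated controls gave dose-response curves fitted nonlinearly for IC50.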
A general note: ATP-based viability assays read luminescence as a measure of living cells.

[3] abbreviates: percentage of inhibition of p300 at 10 nM (Table 3).
Where [4] appears, read: percentage of inhibition of p300 at 10 nM (Table 2).

Read-outs that look alike come from different tables or passages of the source.

P300, sequence (Q09472 whole entry): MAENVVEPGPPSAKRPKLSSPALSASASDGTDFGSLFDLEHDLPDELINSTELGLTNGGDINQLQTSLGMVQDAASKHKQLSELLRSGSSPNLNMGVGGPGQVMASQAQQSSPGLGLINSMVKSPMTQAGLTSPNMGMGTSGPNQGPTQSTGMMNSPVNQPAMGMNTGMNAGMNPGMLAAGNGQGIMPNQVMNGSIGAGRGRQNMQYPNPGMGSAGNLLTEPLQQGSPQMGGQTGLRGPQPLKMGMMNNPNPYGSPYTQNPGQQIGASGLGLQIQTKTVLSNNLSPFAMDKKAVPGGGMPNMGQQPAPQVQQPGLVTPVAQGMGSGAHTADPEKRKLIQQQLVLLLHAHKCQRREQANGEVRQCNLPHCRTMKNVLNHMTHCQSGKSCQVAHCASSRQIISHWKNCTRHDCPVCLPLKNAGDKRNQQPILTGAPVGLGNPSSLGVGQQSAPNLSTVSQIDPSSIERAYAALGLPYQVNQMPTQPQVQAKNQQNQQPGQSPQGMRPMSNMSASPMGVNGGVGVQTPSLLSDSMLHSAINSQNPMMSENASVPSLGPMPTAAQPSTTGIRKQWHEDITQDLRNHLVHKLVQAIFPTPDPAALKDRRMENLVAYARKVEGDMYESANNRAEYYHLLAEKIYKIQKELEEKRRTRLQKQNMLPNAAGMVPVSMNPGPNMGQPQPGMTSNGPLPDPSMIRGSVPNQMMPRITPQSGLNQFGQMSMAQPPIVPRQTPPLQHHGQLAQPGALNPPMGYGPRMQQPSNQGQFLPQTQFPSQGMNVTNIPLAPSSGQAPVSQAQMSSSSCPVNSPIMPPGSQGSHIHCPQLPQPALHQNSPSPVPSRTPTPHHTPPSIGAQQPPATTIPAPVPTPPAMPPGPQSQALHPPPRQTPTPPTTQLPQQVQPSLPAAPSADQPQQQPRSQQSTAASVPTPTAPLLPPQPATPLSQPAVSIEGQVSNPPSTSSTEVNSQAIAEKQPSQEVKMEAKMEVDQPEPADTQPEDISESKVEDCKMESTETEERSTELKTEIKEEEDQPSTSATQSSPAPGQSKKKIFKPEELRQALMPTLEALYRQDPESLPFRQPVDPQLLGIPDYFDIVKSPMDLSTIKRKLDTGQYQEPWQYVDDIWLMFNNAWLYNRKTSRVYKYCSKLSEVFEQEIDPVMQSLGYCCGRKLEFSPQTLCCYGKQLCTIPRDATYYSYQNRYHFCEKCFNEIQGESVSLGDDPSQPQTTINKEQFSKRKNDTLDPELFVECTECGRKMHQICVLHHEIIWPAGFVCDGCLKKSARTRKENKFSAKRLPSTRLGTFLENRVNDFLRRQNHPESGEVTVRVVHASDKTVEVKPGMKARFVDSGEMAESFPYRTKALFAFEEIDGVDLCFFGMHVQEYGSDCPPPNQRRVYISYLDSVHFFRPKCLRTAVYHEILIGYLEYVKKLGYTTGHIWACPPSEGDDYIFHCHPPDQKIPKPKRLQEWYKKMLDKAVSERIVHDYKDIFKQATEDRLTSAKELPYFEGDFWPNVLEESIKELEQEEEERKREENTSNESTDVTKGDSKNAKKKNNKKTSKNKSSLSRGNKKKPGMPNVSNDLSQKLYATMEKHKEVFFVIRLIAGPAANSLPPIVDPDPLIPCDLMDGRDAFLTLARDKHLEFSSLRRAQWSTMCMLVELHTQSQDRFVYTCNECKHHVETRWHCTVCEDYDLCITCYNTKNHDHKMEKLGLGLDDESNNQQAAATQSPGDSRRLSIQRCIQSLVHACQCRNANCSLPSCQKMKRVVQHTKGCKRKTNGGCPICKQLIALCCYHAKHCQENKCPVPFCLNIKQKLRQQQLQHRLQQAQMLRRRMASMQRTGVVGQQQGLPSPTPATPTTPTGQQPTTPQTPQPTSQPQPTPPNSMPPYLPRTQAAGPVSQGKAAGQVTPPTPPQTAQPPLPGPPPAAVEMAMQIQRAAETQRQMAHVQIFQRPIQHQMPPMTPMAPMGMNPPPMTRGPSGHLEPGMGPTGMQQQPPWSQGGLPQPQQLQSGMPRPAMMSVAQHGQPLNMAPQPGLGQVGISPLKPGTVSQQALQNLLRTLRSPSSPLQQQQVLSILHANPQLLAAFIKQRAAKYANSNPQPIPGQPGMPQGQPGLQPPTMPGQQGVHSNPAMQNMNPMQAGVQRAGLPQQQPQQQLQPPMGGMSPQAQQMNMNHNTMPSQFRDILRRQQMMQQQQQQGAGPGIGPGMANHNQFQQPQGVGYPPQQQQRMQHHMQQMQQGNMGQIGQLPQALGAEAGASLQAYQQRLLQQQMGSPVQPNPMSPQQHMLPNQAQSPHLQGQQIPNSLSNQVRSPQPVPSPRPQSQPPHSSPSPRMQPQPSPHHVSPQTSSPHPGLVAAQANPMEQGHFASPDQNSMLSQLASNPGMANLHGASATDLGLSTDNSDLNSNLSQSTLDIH

As for `CC(=O)N1CCc2c(c(N3CCCc4cc(-c5cnn(C)c5)c(C(F)F)cc43)nn2C2CCN(C(=O)CCCCCCNc3cccc4nnn(C5CCC(=O)NC5=O)c(=O)c34)CC2)C1` (centres unmarked) [P-153, 3-(5-((7-(4-(5-acetyl-3-(7-(difluoromethyl)-6-(1-methyl-1H-pyrazol-4-yl)-3,4-dihydroquinolin-1(2H)-yl)-4,5,6,7-tetrahydro-1H-pyrazolo[4,3-c]pyridin-1-yl)piperidin-1-yl)-7-oxoheptyl)amino)-4-oxobenzo[d] [1,2,3]triazin-3 (4H)-yl)piperidine-2,6-dione], the inhibition at 0.01 µM in experiment [1] (setting [3]) is more than 80%. This molecule also had a half-inhibitory concentration (IC50) in experiment [2] (CellTiter-Glo (Table 3)) of 3.7 nM.
Turning to `CC(=O)N1CCc2c(c(N3CCCc4cc(-c5cnn(C)c5)c(C(F)F)cc43)nn2C2CCN(Cc3ccc(CCOc4cccc5c4CN(C4CCC(=O)NC4=O)C5=O)cc3)CC2)C1` (centres unmarked) [P-174, 3-(4-(4-((4-(5-acetyl-3-(7-(difluoromethyl)-6-(1-methyl-1H-pyrazol-4-yl)-3,4-dihydroquinolin-1(2H)-yl)-4,5,6,7-tetrahydro-1H-pyrazolo[4,3-c]pyridin-1-yl)piperidin-1-yl)methyl)phenethoxy)-1-oxoisoindolin-2-yl)piperidine-2,6-dione], the inhibition at 0.01 µM in experiment [1] (setting [3]) was more than 80%. In experiment [2] (CellTiter-Glo (Table 3)), this molecule registered an IC50 of 0.4 nM.
On to `CNC(=O)N1CCc2c(c(N3CCCc4cc(-c5cnn(CC(=O)NCCOCCOCCOCCOCCC(=O)N[C@H](C(=O)N6C[C@H](O)C[C@H]6C(=O)NCc6ccc(-c7scnc7C)cc6)C(C)(C)C)c5)c(C(F)F)cc43)nn2C2CCOCC2)C1` [P-078, 3-(7-(Difluoromethyl)-6-(1-((S)-20-((2S,4R)-4-hydroxy-2-((4-(4-methylthiazol-5-yl)benzyl)carbamoyl)pyrrolidine-1-carbonyl)-21,21-dimethyl-2,18-dioxo-6,9,12,15-tetraoxa-3,19-diazadocosyl)-1H-pyrazol-4-yl)-3,4-dihydroquinolin-1(2H)-yl)-N-methyl-1-(tetrahydro-2H-pyran-4-yl)-1,4,6,7-tetrahydro-5H-pyrazolo[4,3-c]pyridine-5-carboxamide], for which, in experiment [1] (setting [3]), the inhibition at 0.01 µM is less than 20%. This molecule also yielded an IC50 in experiment [2] (CellTiter-Glo (Table 3)) of more than 10000 nM.
Turning to `CNC(=O)N1CCc2c(c(N3CCCc4cc(-c5cnn(CC(=O)NCCOCCOCCOCCNc6cccc7c6C(=O)N(C6CCC(=O)NC6=O)C7=O)c5)c(C(F)F)cc43)nn2C2CCOCC2)C1` (centres unmarked) [P-023, 3-(7-(Difluoromethyl)-6-(1-(14-((2-(2,6-dioxopiperidin-3-yl)-1,3-dioxoisoindolin-4-yl)amino)-2-oxo-6,9,12-trioxa-3-azatetradecyl)-1H-pyrazol-4-yl)-3,4-dihydroquinolin-1(2H)-yl)-N-methyl-1-(tetrahydro-2H-pyran-4-yl)-1,4,6,7-tetrahydro-5H-pyrazolo[4,3-c]pyridine-5-carboxamide], the inhibition at 0.01 µM in experiment [1] (setting [4]) was less than 20%. Besides, in experiment [2] (CellTiter-Glo (Table 2)), the IC50 came out at 357 nM.
Consider `CC(=O)N1CCc2c(c(N3CCCc4cc(-c5cnn(C)c5)c(C(F)F)cc43)nn2C2CCN(C(=O)CCCCNc3cccc4nnn(C5CCC(=O)NC5=O)c(=O)c34)CC2)C1` (centres unmarked) [P-155, 3-(5-((5-(4-(5-acetyl-3-(7-(difluoromethyl)-6-(1-methyl-1H-pyrazol-4-yl)-3,4-dihydroquinolin-1(2H)-yl)-4,5,6,7-tetrahydro-1H-pyrazolo[4,3-c]pyridin-1-yl)piperidin-1-yl)-5-oxopentyl)amino)-4-oxobenzo[d][1,2,3]triazin-3(4H)-yl)piperidine-2,6-dione], for which the inhibition at 0.01 µM in experiment [1] (setting [3]) was in the range of 50 to 80%. This molecule returned an IC50 in experiment [2] (CellTiter-Glo (Table 3)) of 22.3 nM.
Turning to `CNC(=O)N1CCc2c(c(N3CCCc4cc(-c5cnn(C)c5)c(C(F)F)cc43)nn2C2CCN(C(=O)CCCCCC(=O)N[C@H](C(=O)N3C[C@H](O)C[C@H]3C(=O)NCc3ccc(-c4scnc4C)cc3)C(C)(C)C)CC2)C1` [P-059, 3-(7-(Difluoromethyl)-6-(1-methyl-1H-pyrazol-4-yl)-3,4-dihydroquinolin-1(2H)-yl)-1-(1-(7-(((S)-1-((2S,4R)-4-hydroxy-2-((4-(4-methylthiazol-5-yl)benzyl)carbamoyl)pyrrolidin-1-yl)-3,3-dimethyl-1-oxobutan-2-yl)amino)-7-oxoheptanoyl)piperidin-4-yl)-N-methyl-1,4,6,7-tetrahydro-5H-pyrazolo[4,3-c]pyridine-5-carboxamide], the inhibition at 0.01 µM in experiment [1] (setting [3]) is less than 20%. This molecule also had an IC50 in experiment [2] (CellTiter-Glo (Table 3)) of 60.6 nM.
The like results for `CNC(=O)N1CCc2c(c(N3CCCc4cc(-c5cnn(C)c5)c(C(F)F)cc43)nn2C2CCN(C(=O)CCCCCCc3cccc4c3C(=O)N(C3CCC(=O)NC3=O)C4)CC2)C1` (centres unmarked) [P-087, 3-(7-(Difluoromethyl)-6-(1-methyl-1H-pyrazol-4-yl)-3,4-dihydroquinolin-1(2H)-yl)-1-(1-(7-(2-(2,6-dioxopiperidin-3-yl)-3-oxoisoindolin-4-yl)heptanoyl)piperidin-4-yl)-N-methyl-1,4,6,7-tetrahydro-5H-pyrazolo[4,3-c]pyridine-5-carboxamide] were, in that order, 20 to 50% and 12.6 nM.
On to `CC(=O)N1CCc2c(c(N3CCCc4cc(-c5cnn(C)c5)c(C(F)F)cc43)nn2C2CCN(CCCCCCCc3cccc4c3C(=O)N(C3CCC(=O)NC3=O)C4=O)CC2)C1` (centres unmarked) [P-132, 4-(7-(4-(5-Acetyl-3-(7-(difluoromethyl)-6-(1-methyl-1H-pyrazol-4-yl)-3,4-dihydroquinolin-1(2H)-yl)-4,5,6,7-tetrahydro-1H-pyrazolo[4,3-c]pyridin-1-yl)piperidin-1-yl)heptyl)-2-(2,6-dioxopiperidin-3-yl)isoindoline-1,3-dione], for which the inhibition at 0.01 µM in experiment [1] (setting [3]) was 20 to 50%. For the same molecule, the IC50 in experiment [2] (CellTiter-Glo (Table 3)) is 16.8 nM.
As to `CNC(=O)N1CCc2c(c(N3CCCc4cc(-c5cnn(C)c5)c(C(F)F)cc43)nn2C2CCN(C(=O)CCOCCOCCOCCC(=O)N[C@H](C(=O)N3C[C@H](O)C[C@H]3C(=O)NCc3ccc(-c4scnc4C)cc3)C(C)(C)C)CC2)C1` [P-069, 3-(7-(Difluoromethyl)-6-(1-methyl-1H-pyrazol-4-yl)-3,4-dihydroquinolin-1(2H)-yl)-1-(1-((S)-15-((2S,4R)-4-hydroxy-2-((4-(4-methylthiazol-5-yl)benzyl)carbamoyl)pyrrolidine-1-carbonyl)-16,16-dimethyl-13-oxo-4,7,10-trioxa-14-azaheptadecanoyl)piperidin-4-yl)-N-methyl-1,4,6,7-tetrahydro-5H-pyrazolo[4,3-c]pyridine-5-carboxamide], in experiment [1] (setting [3]), the inhibition at 0.01 µM is less than 20%. This molecule showed an IC50 in experiment [2] (CellTiter-Glo (Table 3)) of 36.1 nM.
In the case of `CC(=O)N1CCc2c(c(N3CCCc4cc(-c5cnn(C)c5)c(C(F)F)cc43)nn2C2CCN(CCN3CCC(COc4cccc5c4C(=O)N(C4CCC(=O)NC4=O)C5=O)CC3)CC2)C1` (centres unmarked) [P-167, 4-((1-(2-(4-(5-Acetyl-3-(7-(difluoromethyl)-6-(1-methyl-1H-pyrazol-4-yl)-3,4-dihydroquinolin-1(2H)-yl)-4,5,6,7-tetrahydro-1H-pyrazolo[4,3-c]pyridin-1-yl)piperidin-1-yl)ethyl)piperidin-4-yl)methoxy)-2-(2,6-dioxopiperidin-3-yl)isoindoline-1,3-dione], in experiment [1], the inhibition at 0.01 µM is less than 20%. The same molecule displayed an IC50 in experiment [2] (CellTiter-Glo (Table 3)) of 92 nM.
In the case of `CNC(=O)N1CCc2c(c(N3CCCc4cc(-c5cnn(C)c5)c(C(F)F)cc43)nn2C2CCN(C(=O)CCCCCNc3cccc4c3CN(C3CCC(=O)NC3=O)C4=O)CC2)C1` (centres unmarked) [P-095, 3-(7-(Difluoromethyl)-6-(1-methyl-1H-pyrazol-4-yl)-3,4-dihydroquinolin-1(2H)-yl)-1-(1-(6-((2-(2,6-dioxopiperidin-3-yl)-1-oxoisoindolin-4-yl)amino)hexanoyl)piperidin-4-yl)-N-methyl-1,4,6,7-tetrahydro-5H-pyrazolo[4,3-c]pyridine-5-carboxamide], the inhibition at 0.01 µM in experiment [1] (setting [3]) lay within 20 to 50%. The molecule also gave an IC50 in experiment [2] (CellTiter-Glo (Table 3)) of 67.7 nM.
Turning to `CNC(=O)N1CCc2c(c(N3CCCc4cc(-c5cnn(CC(=O)NCCOCCOCCOCCNc6ccc7c(c6)C(=O)N(C6CCC(=O)NC6=O)C7=O)c5)c(C(F)F)cc43)nn2C2CCOCC2)C1` (centres unmarked) [P-030, 3-(7-(Difluoromethyl)-6-(1-(14-((2-(2,6-dioxopiperidin-3-yl)-1,3-dioxoisoindolin-5-yl)amino)-2-oxo-6,9,12-trioxa-3-azatetradecyl)-1H-pyrazol-4-yl)-3,4-dihydroquinolin-1(2H)-yl)-N-methyl-1-(tetrahydro-2H-pyran-4-yl)-1,4,6,7-tetrahydro-5H-pyrazolo[4,3-c]pyridine-5-carboxamide], the inhibition at 0.01 µM in experiment [1] (setting [4]) was less than 20%. Also, in experiment [2] (CellTiter-Glo (Table 2)), inhibition was half-maximal at 669 nM (IC50).
`CC(=O)N1CCc2c(c(N3CCCc4cc(-c5cnn(C)c5)c(C(F)F)cc43)nn2C2CCN(C(=O)CCCCCCNc3ccc4c(c3)n(C)c(=O)n4C3CCC(=O)NC3=O)CC2)C1` (centres unmarked) [P-130, 3-(5-((7-(4-(5-acetyl-3-(7-(difluoromethyl)-6-(1-methyl-1H-pyrazol-4-yl)-3,4-dihydroquinolin-1(2H)-yl)-4,5,6,7-tetrahydro-1H-pyrazolo[4,3-c]pyridin-1-yl)piperidin-1-yl)-7-oxoheptyl)amino)-3-methyl-2-oxo-2,3-dihydro-1H-benzo[d]imidazol-1-yl)piperidine-2,6-dione]: the inhibition at 0.01 µM in experiment [1] (setting [3]) is more than 80%. Further, half-maximal inhibition in experiment [2] (CellTiter-Glo (Table 3)) (IC50) required 0.5 nM.
